Data reported in patent US10253037B2, “Drug with antiviral activity (variants)” (priority 2015, dated 2019).

Tests used:
[1] = system: MT-4 human lymphoblastoid cells; assay: Cytotoxic effect of the drug on uninfected MT-4 cells (viability by dye); assay type: cell-based; conditions: 5 days
Description: Cells. MT-4 human lymphoblastoid cells were used. […] The drug. Samples of drugs dissolved in dimethylsulfoxide were studied. Study of the cytotoxic effect of the drug. The investigated medicinal product was added to the cells in various concentrations. […] Recording of the results: determination of the viability and the number of the cells by means of a dye.

HIV-1899A strain [2] = assay: Antiviral effect in MT-4 cells infected with HIV-1 (MTT, cytopathic effect, syncytium); assay type: cell-based; conditions: 0.01 TCD50/cell, 5 days
Description: Cells. MT-4 human lymphoblastoid cells were used. The cells were incubated in RPMI 1640 medium with 10% serum of cow embryos, 100 μg/ml of gentamicin.
Viruses. HIV-1899A strain was used as the source of the virus.
The drug. Samples of drugs dissolved in dimethylsulfoxide were studied.
Study of the antiviral effect of the drug.
(§1) The investigated medicinal products were added to the cells at various doses with simultaneous infection with the virus at a dose of 0.01 TCD50/cell. The cell cultures were incubated at 37° C. in the atmosphere with 5% of CO2 and at 98% humidity for 5 days. The results were recorded by staining the cells with tetrazolium dye (MTT method) with spectrophotometry and light microscopy: investigation of cytopathic effect of the virus (CPD) and virus-induced formation of syncytium (syncytium is a conglomerate of several cells with a common cell membrane formed as a result of fusion of their membranes).
The degree of protection of cells from the cyto-destructive effect of the virus was determined by the following formula:
[formula] where • A is the number of viable cells in the experimental group; • B is the same in the infected culture (virus control); • K is the same in the uninfected culture (cell control).

Hepatitis B virus (HBV) = assay: Amount of extracellular HBV DNA in HepG2.2.15 culture medium (RT-PCR); assay type: cell-based; conditions: 5 μg/ml, HepG2.2.15 cells, 5 days; untreated control 4.42 +/− 0.28
Description: HepG2.2.15 line cells infected with Hepatitis B virus were grown in DMEM medium supplemented with 10% bovine serum at 5% CO2, 37° C.
Analysis of the amount of extracellular HBV of the DNA.
After 5 days of HepG2.2.15 incubation the culture medium was selected, the cells were separated by centrifugation, and the DNA was isolated by the Klintschar and Neuhuber method (Klintschar and Neuhuber, 2000). Quantitation of HBV was performed using RT-PCR.

HIV-1899A strain [3] = assay: Joint action with anti-HIV drugs: cell protection in HIV-1 infected MT-4 cells (MTT); assay type: cell-based
Description: MT-4 human lymphoblastoid cells were used. The cells were cultured in RPMI 1640 medium with 10% serum of cow embryos, 100 μg/ml gentamicin.
The strain of HIV-1899A was used as a source of the virus.
The drug. Samples of drugs dissolved in dimethylsulfoxide were studied. As an antiretroviral reference drug, Raltegravir (prototype) was used.
Study of the antiviral action of the drug (cell protection).
as §1, with “drugs” for “medicinal products”, “Cell” for “The cell”, “5%” for “5% of”, “and” for “and at”

Row | Compound | Without virus (cytotoxicity) Viability of cells, % ([1]; 10 μg/ml) [%] | Without virus (cytotoxicity) Viability of cells, % ([1]; 30 μg/ml) [%] | Without virus (cytotoxicity) Viability of cells, % ([1]; 50 μg/ml) [%] | HIV 1 infection Cytopathic effect of the virus, % (HIV-1899A strain [2]; 10 μg/ml) | HIV 1 infection Protection of cells, % (HIV-1899A strain [2]; 10 μg/ml) [%] | HIV 1 infection Cytopathic effect of the virus, % (HIV-1899A strain [2]; 30 μg/ml) | HIV 1 infection Protection of cells, % (HIV-1899A strain [2]; 30 μg/ml) [%] | HIV 1 infection Cytopathic effect of the virus, % (HIV-1899A strain [2]; 50 μg/ml) | HIV 1 infection Protection of cells, % (HIV-1899A strain [2]; 50 μg/ml) [%] | HBV Log10 IU/ml (amount of extracellular DNA HBV) (Hepatitis B virus (HBV)) | melting point | Protection of cells, % (HIV-1899A strain [3]; Raltegravir alone, 10 μg/ml) [%] | Protection of cells, % (HIV-1899A strain [3]; Lopinavir alone, 2.5 μg/ml) [%] | Protection of cells, % (HIV-1899A strain [3]; Retrovir alone, 0.003 μg/ml) [%]
1 | Oc1nc(Cl)nc2c1C(c1cccc(Cl)c1)c1c(O)nc(Cl)nc1O2 [Derivative 6] | 100.0 | 100.0 | 100.0 | 57.5-80.0% | 10.7 | 37.5-62.5% | 71.7 | 0.0-0.0% | 90.5 | – | – | – | – | –
2 | COc1ccc(C2c3c(O)nc(Cl)nc3Oc3nc(Cl)nc(O)c32)cc1 [Derivative 7] | 100.0 | 100.0 | 100.0 | 12-65% | 45 | 5-15% | 80 | 0.0-0.0% | 100 | 2.74 +/− 0.25 Log10 IU/ml | – | – | – | –
3 | O=[N+]([O-])c1ccc(C2C3=C(O)NC(O)(S)N=C3Oc3nc(Cl)nc(O)c32)cc1 (stereo not shown) [Derivative 4, 2-chloro-8-sulfhydryl-5-(4-nitrophenyl)-5H-pyrimido [5′,4′:5,6]pyrano[2,3-d]pyrimidine-4,6,8-triol] | 100.0 | 100.0 | 100.0 | 0.0-0.0% | 95 | 15-60% | 50 | 0.0-0.0% | 90 | – | 270 °C (dec.) | – | – | –
4 | O=[N+]([O-])c1ccc(C2c3c(O)nc(Cl)nc3Oc3nc(Cl)nc(O)c32)cc1 [Derivative 1] | 100.0 | 100.0 | 100.0 | 0.0-0.0% | 100 | 0.0-0.0% | 90 | 0.0-0.0% | 100 | 2.58 +/− 0.33 Log10 IU/ml | – | – | – | –
5 | O=[N+]([O-])c1ccc(C2c3c(O)nc(Cl)nc3Oc3nc(Cl)nc(Cl)c32)cc1 (stereo not shown) [Derivative 3, 2,6,8-trichloro-5-(4-nitrophenyl)-5H-pyrimido [5′, 4′:5,6] pyrano [2,3-d] pyrimidin-4-ol] | 100.0 | 100.0 | 100.0 | 15-70% | 50 | 18-92% | 30 | 10-40% | 65 | – | 265 to 267 °C | – | – | –
6 | Oc1nc(Cl)nc2c1C(c1ccccc1)c1c(O)nc(Cl)nc1O2 [Derivative 5] | 100.0 | 100.0 | 100.0 | 0.0-0.0% | 100 | 57.5-80.0% | 10.7 | 37.5-62.5% | 71.7 | – | – | – | – | –
7 | Cc1nnc(C(=O)NC(C)(C)c2nc(C(=O)NCc3ccc(F)cc3)c(O)c(=O)n2C)o1 [Raltegravir, reference compound] | – | – | – | 0.0-0.0% | 90 | 0.0-0.0% | 100 | 0.0% | – | – | – | 23 | – | –
8 | O=[N+]([O-])c1ccc(C2c3c(O)nc(S)nc3Oc3nc(Cl)nc(O)c32)cc1 (stereo not shown) [Derivative 2, 2-chloro-8-sulfhydryl-5-(4-nitrophenyl)-5H-pyrimido [5′,4′:5,6]pyrano[2,3-d]pyrimidine-4.6-diol] | 100.0 | 100.0 | 100.0 | 0.0-0.0% | 100 | 96-100% | 0 | 55-80% | 10 | 2.65 +/− 0.19 Log10 IU/ml | – | – | – | –
9 | Cc1cccc(C)c1OCC(=O)N[C@@H](Cc1ccccc1)[C@@H](O)C[C@H](Cc1ccccc1)NC(=O)[C@H](C(C)C)N1CCCNC1=O [Lopinavir] | – | – | – | – | – | – | – | – | – | – | – | – | 17 | –
10 | Cc1cn([C@H]2C[C@H](N=[N+]=[N-])[C@@H](CO)O2)c(=O)[nH]c1=O [Retrovir] | – | – | – | – | – | – | – | – | – | – | – | – | – | 13
